Assays:
E. coli NCTC 10418 = assay: E. coli counts after gentamicin profile (peak 4 mg/l, then reconstituted maintained concentration); assay type: cell-based, Escherichia coli; details: post-distribution peak 4 mg/liter
Method: (§1) The aminoglycoside reached a peak concentration of 4 mg/l 30 minutes post-dose and was removed from the E. coli culture by washing. Medium containing 0, 2, 2.5 and 3 mg/l gentamicin was reconstituted and added to the culture at 1 hour after initial exposure to the aminoglycoside (n=6).
The experimental work described herein involved testing bacterial response while changing aminoglycoside concentrations with time in the test tube, and mimics closely measurements made in man under clinical conditions (Bastone E B, Li S C, Ioannides-Demos L L, Spicer J., McLean A J, “Kill kinetics and regrowth patterns of E. coli exposed to gentamicin concentration-time profiles simulating in vivo bolus or infusion dosing”, Antimicrob Agents Chemother. 37:914-917, 1993).
With each antibiotic, concentration-time profiles similar to those observed in the blood of clinical patients following conventional intravenous dosing of an aminoglycoside (gentamicin) and pump-driven profiles of gentamicin and cephalosporin (cephazolin) were attained. The concentration-time profiles for each drug class have the general form shown in FIG. IA and FIG. IIIA of the accompanying drawings. Additionally a gentamicin profile of the form shown in FIG. IIIA was generated, which reached a peak of 12 mg/l over 3 hours, was maintained at 12 mg/l for a further hour, then was reconstituted to a range of steady-state concentrations (0, 0.5, 1.0, 2.0, 3.0, 4.0 mg/l) to yield the experimental results shown in Table 4. […]

[1] = Gentamicin concentration-time profile measured in the in vitro culture medium
Method: as §1
With each antibiotic, concentration-time profiles similar to those observed in the blood of clinical patients following conventional intravenous dosing of an aminoglycoside (gentamicin) and pump-driven profiles of gentamicin and cephalosporin (cephazolin) were attained. The concentration-time profiles for each drug class have the general form shown in FIG. IA and FIG. IIIA of the accompanying drawings. Additionally a gentamicin profile of the form shown in FIG. IIIA was generated, which reached a peak of 12 mg/l over 3 hours, was maintained at 12 mg/l for a further hour, then was reconstituted to a range of steady-state concentrations (0, 0.5, 1.0, 2.0, 3.0, 4.0 mg/l) to yield the experimental results shown in Table 4.

[2] = system: blood culture isolate of cMRSA; assay: MIC and MBC for the cMRSA isolate; assay type: cell-based, Staphylococcus aureus; details: mecA positive
Method: The student test was used for statistical analysis with a significant level of 0.05, it was performed using the Sigma Stat 32 program (SPSS Inc 1992-1997).

[3] = in vitro profile: peak 4 mg/liter, reconstituted to 3.0 mg/liter at 1 hr, maintained 0 hr (control)
[4] = in vitro profile: peak 4 mg/liter, reconstituted to 3.0 mg/liter at 1 hr, maintained 2 hr
[5] = in vitro profile: peak 4 mg/liter, reconstituted to 3.0 mg/liter at 1 hr, maintained 4 hr
[6] = in vitro profile: peak 4 mg/liter, reconstituted to 3.0 mg/liter at 1 hr, maintained 8 hr
[7] = in vitro profile: post-distribution peak 4 mg/liter, reconstituted at 1 hr to 0 mg/liter
[8] = in vitro profile: post-distribution peak 4 mg/liter, reconstituted at 1 hr to 2.0 mg/liter
[9] = in vitro profile: post-distribution peak 4 mg/liter, reconstituted at 1 hr to 2.5 mg/liter
[10] = in vitro profile: post-distribution peak 4 mg/liter, reconstituted at 1 hr to 3.0 mg/liter

For gentamicin, the “BACTERIAL COUNTS” value (E. coli NCTC 10418; reconstituted at 1 hr to 2.0 mg/liter, 11 hr) was 7.76 ± 1.06 log ^10 (CFU/mL), the “BACTERIAL COUNTS” value (E. coli NCTC 10418; reconstituted at 1 hr to 2.0 mg/liter, 25 hr) was 8.69 ± 0.63 log ^10 (CFU/mL) and the “BACTERIAL COUNTS” value (E. coli NCTC 10418; reconstituted at 1 hr to 2.0 mg/liter, 49 hr) was 9.34 ± 0.27 log ^10 (CFU/mL). The “BACTERIAL COUNTS” value (E. coli NCTC 10418; reconstituted at 1 hr to 2.5 mg/liter, 3 hr) was 0.33 ± 0.52 log ^10 (CFU/mL), the “BACTERIAL COUNTS” value (E. coli NCTC 10418; reconstituted at 1 hr to 2.5 mg/liter, 11 hr) was 0.33 ± 0.52 log ^10 (CFU/mL) and the “BACTERIAL COUNTS” value (E. coli NCTC 10418; reconstituted at 1 hr to 2.5 mg/liter, 25 hr) was 4.85 ± 3.82 log ^10 (CFU/mL). For the same substance, the “BACTERIAL COUNTS” value (E. coli NCTC 10418; reconstituted at 1 hr to 2.5 mg/liter, 49 hr) was 5.98 ± 4.63 log ^10 (CFU/mL), the “BACTERIAL COUNTS” value (E. coli NCTC 10418; reconstituted at 1 hr to 3.0 mg/liter, 3 hr) was 0.33 ± 0.52 log ^10 (CFU/mL) and the “BACTERIAL COUNTS” value (E. coli NCTC 10418; reconstituted at 1 hr to 3.0 mg/liter, 11 hr) was “NGD”. For the same substance, the “BACTERIAL COUNTS” value (E. coli NCTC 10418; reconstituted at 1 hr to 3.0 mg/liter, 25 hr) was “NGD”, the “BACTERIAL COUNTS” value (E. coli NCTC 10418; reconstituted at 1 hr to 3.0 mg/liter, 49 hr) was “NGD” and the “AUC 0-49 h” value [1, 3] was 3.93 ± 0.33 µg·h/mL. The Cmax [1, 3] was 6120 ± 350 ng/mL, the Cmin [1, 3] was 0 ng/mL and the “AUC 0-49 h” value [1, 4] was 124.98 ± 3.08 µg·h/mL. The Cmax [1, 4] was 6230 ± 270 ng/mL, the Cmin [1, 4] was 2450 ± 240 ng/mL and the “AUC 0-49 h” value [1, 5] was 120.99 ± 6.05 µg·h/mL. The Cmax [1, 5] was 6300 ± 450 ng/mL, the Cmin [1, 5] was 2370 ± 340 ng/mL and the “AUC 0-49 h” value [1, 6] was 119.78 ± 8.84 µg·h/mL. The Cmax [1, 6] was 6370 ± 220 ng/mL, the Cmin [1, 6] was 2350 ± 190 ng/mL and the “AUC 0-49 h” value [1, 7] was 3.97 ± 0.09 µg·h/mL. The Cmax [1, 7] was 6220 ± 330 ng/mL, the Cmin [1, 7] was 0 ng/mL and the “AUC 0-49 h” value [1, 8] was 102.66 ± 6.91 µg·h/mL. The Cmax [1, 8] was 6320 ± 250 ng/mL, the Cmin [1, 8] was 1930 ± 240 ng/mL and the “AUC 0-49 h” value [1, 9] was 124.40 ± 4.27 µg·h/mL. For the same substance, the Cmax [1, 9] was 6230 ± 230 ng/mL, the Cmin [1, 9] was 2470 ± 310 ng/mL and the “AUC 0-49 h” value [1, 10] was 153.43 ± 11.01 µg·h/mL. The Cmax [1, 10] was 6280 ± 370 ng/mL, the Cmin [1, 10] was 2880 ± 230 ng/mL and the MBC [2] was 4 µg/mL. It also gave an MIC [2] of 1 µg/mL.

— patent US6858589B2, “Methods of and compositions for potentiating the action of agents active on cell wall sites of the susceptible bacteria” (priority 1996, dated 2005)
